From US11584741B2, “Crystalline forms of 4-(5-(4,7-dimethylbenzofuran-2-yl)-1,2,4-oxadiazol-3-yl)benzoic acid and processes for their preparation” (King's College London, priority 2016, dated 2023)

Key:
[1] = system: rats with severed and re-implanted sensory roots at the level of the left forelimb; experiment: Sensory roots of four DRG severed and re-implanted into the spinal cord, sticky tape tests; assay type: in vivo; conditions: rat, after 5 weeks, 1 mg/kg three times a week
Protocol: In another example of nerve injury, the four sensory roots from each of four DRG at the level of the left forelimb were severed and re-implanted into the spinal cord.
The results are illustrated in Borthwick et al., 2016. […] Rats were treated with 1 mg/kg of the test compound or vehicle two days after lesion, and then three times a week for the period of the experiment. Error bars show SEM. ***P<0.001, students t test, n=3-4 rats for each treatment group. At weeks 3, 4, and 5, there was significant difference between the rats treated with RARβ agonist as compared to rats treated with other retinoid agonists and vehicle.

[2] = system: corticospinal tract (CST) of rats crushed at the C4 level; conditions: in vivo; Agudo et al., 2010; cited from earlier work
[3] = system: corticospinal tract (CST) of rats crushed at the C4 level; experiment: Corticospinal tract (CST) crush at C4 in rats, agonist applied to the lateral ventricle; assay type: in vivo; conditions: rat
Protocol: The results are illustrated in Borthwick et al., 2016.
All animal experiments were carried out under UK home office regulations. Dorsal column lesions were performed on adult male rats as previously described (see, e.g., Bradbury et al., 2002). […] The pumps were placed subcutaneously and connected to a brain infusion catheter (Alzet™), which was inserted into the lateral ventricle (Bregma coordinates: rostrocaudal: −0.8 mm, mediolateral: −1.5 mm and dorsoventral: −4.5 mm). […] The dose was based previous in vivo studies on activation of RARα and RARβ signalling in the adult rat brain (see, e.g., Goncalves et al., 2009). Animals which underwent behavioural studies and subsequent tracing (n=6 per treatment) were kept for six weeks before being sacrificed with a lethal injection of pentobarbital and transcardially perfused with 4% PFA. Dissected tissue (cervical and lumbar spinal cord) was processed for immunofluorescence.
Descendent corticospinal tract axons were anterogradely traced after the dorsal column crush was performed by injected BDA (10% in PBS, Mw10K from Molecular Probes) into the motor cortex as previously described (see, e.g., Yip et al., 2006). Six injections were done in the right cortex (0.5 μL of BDA/injection point). Animals (n=6 per treatment) were perfused and the spinal cord was transferred to PBS (plus 0.1% sodium azide) and embedded in gelatin (10%, 300 bloom; Sigma, Poole, UK). Gelatin blocks were hardened in 4% paraformaldehyde, and 40 μm free-floating serial transverse sections were cut on a vibratome (Leica, Nussloch, Germany) and collected in 24-well plates containing PBS (plus 0.1% sodium azide).
BDA was detected using the tyramide amplification kit (Perkin-Elmer) coupled with extra-avidin-FITC (Amersham Pharmacia Biotech, UK, 1:500). All BDA-labelled fibres observed within a 1-mm square grid were counted at measured intervals from 5 mm above to 5 mm below the lesion site by an experimenter, blinded to treatment.
CST neurons were labelled by retrograde tracing injecting 2 μL of 5% Fluorogold (FG, Molecular Probes) 2 mm deep into the cervical spinal cord (C3-C4) at a rate of 0.5 μL/minute (n=3 rats per group). In sham animals, FG was injected 0.5 mm bilateral to the medial line of spinal cord (1 μL per side), and in lesioned animals FG (2 μL) was injected into the injury. After 14 days, the cortices were fixed for 2 hours in 4% paraformaldehyde (PFA), embedded in OCT compound and stored frozen. Sagittal sections (12 μm) were cut and 4 sequential slides containing 2 sections from lateral 3.4-3.9 mm were taken for analysis (see, e.g., Paxinos and Watson, 2002).
Immunohistochemistry was carried out using anti-rabbit phospho-Akt (Cell Signalling technology, dilution of 1:100). Secondary antibody used was anti-rabbit Cy3 conjugated (Jackson, used at 1:1000). Images were captured at 100× magnification using a Roperscientific digital camera.
The behavioural tests were carried out as previously described (see, e.g., Bradbury et al., 2002). Rats (n=6 per treatment group) were first trained for two weeks before surgery to perform grid walk and beam walk; they were then tested by an observer blinded to the experimental treatment once a week for five weeks after lesion.

cerebellar neurons = experiment: Neurite outgrowth assay, cerebellar neurons in the presence of myelin / MAG; assay type: cell-based, rat; conditions: cerebellar neurons grown in the presence of myelin
Protocol: (§1) Cerebellar neurons isolated from post-natal day 3 rat pups were cultured over monolayers of parental 3T3 cells in control media, or media supplemented with a recombinant MAG-Fc chimera (R&D Systems) used at a final concentration of 20 μg/mL MAG-Fc. The monolayers were established for 24 hours prior to addition of the neurons and the co-cultures were maintained for approximately 21 hours. Following careful fixation with 4% paraformaldehyde, the neurons were immuno-stained with a GAP-43 antibody (from Graham Wilkin, Imperial College), dilution of 1:500, and the mean length of the longest neurite per cell was measured for approximately 120-150 neurons as previously described (see, e.g., Williams et al., 2005). DRG and cortical explants were obtained from adult rats, they were cultured in cellogen as previously described (see, e.g., Corcoran and Maden, 1999). Three explants per treatment were used. Neurite outgrowth was assessed 3 days later by immunohistochemistry with NF200 (Sigma, dilution of 1:200). The average lengths of the neurites were measured using image pro plus software. Media consisted of DMEM-F12 (Invitrogen) containing N2 (Invitrogen) supplemented with glucose (33 mM) and glutamine (2 mM).

cortical explants = experiment: Neurite outgrowth from cultured cortex of treated lesioned animals; assay type: cell-based, rat; conditions: cortex of lesioned rats treated in vivo; vehicle: did not grow
Protocol: When pieces of cortex from these RARβ agonist treated animals were cultured, neurite outgrowth was observed, in contrast to cortex from control lesioned animals.
as §1

[4] = i.c.v. 180 ng/kg/day for 14 days

For `COc1ccc(-c2ccc3cc(C(=O)O)ccc3c2)cc1C1(C)CCCCC1` [CD2019, 6-(4-methoxy-3-(1-methylcyclohexyl)phenyl)-2-naphthalenecarboxylic acid], which “Behavioural test (sticky tape)” value [1] is on record?
The value was “performed as well as non-lesioned animals”.

And the “Phospho AKT in the injured CST neurons” value [2]?
The value was “induced”.

What about the “Behavioural tests (grid and beam task)” value ([3]; after 5 weeks) of the same molecule?
The value was “performed as well as non-lesioned animals”.

What about the “BDA-labelled CST axons crossing the lesion site” value ([3]; after 5 weeks, vs vehicle (no axons across)) of the same molecule?
Its value is “many axons were observed crossing the injury site”.

What about the “Time to functional recovery, beam task” value [3, 4] of the same molecule?
Its value is 2 weeks post lesion.

What about the “Time to functional recovery, grid task” value [3, 4] of the same molecule?
Its value is 4 weeks post lesion.

What about the “RARβ2 expression in the CST neuronal cell bodies” value ([3]; lateral ventricle for 2 weeks) of the same molecule?
The value was “upregulation of RARβ2”.

What about the Neurite outgrowth (cerebellar neurons) of the same molecule?
Its Neurite outgrowth is “causes the outgrowth of neurites”.

And the “Axon growth from cultured adult cortex of treated animals” value (cortical explants)?
The value was “did grow”.
